This note sets out measurements from patent US12415785B2, “Compound modulators of sting” (CTXT PTY LTD, priority 2019, dated 2025).

What all share (format): binding
For assay [1], the target named is human STING (HAQ) (Homo sapiens, UniProt Q86WV6, G230A/H232R/R293Q). Description: Differential scanning fluorimetry (DSF), huSTING (HAQ). The conditions noted are these: 2 μM protein, compound 100 μM; Tm with ligand minus Tm of protein alone (1% DMSO); read-out: DSF huSTING (HAQ) ΔTm (° C.). The protocol: (§1) Biophysical experiments were performed with three different recombinant human STING protein variants designated according to allelic nomenclature of Yi et al., (2013). […] These were ligated into a modified pET43a E. coli expression vector designed to encode N-terminal His tag followed by tobacco etch virus protease (TEV) cleavage site and a STING gene sequence. The resulting protein sequences for the three allelic variants are listed below: […] Cultures were then cooled to 16° C. and protein expression induced by the addition of isopropyl β-D-1-thiogalactopyranoside to a final concentration of 0.5 mM and the cultures shaken overnight for further 16 hours. Following expression, cell cultures were centrifuged at 5000×g for 20 min and cell pellet stored frozen at −70° C. Protein purification was initiated by thawing the cell pellet in Lysis buffer (25 mM Tris-HCl pH 8.0, 300 mM NaCl, 5 mM DTT, 2 mM MgCl2, 10 mM imidazole, 0.5 mg/ml lysozyme, benzonase endonuclease [EMD Millipore], 1 mM PMSF, complete protease inhibitor tablets EDTA-free [Roche]) using a ratio of 7 ml of buffer per 1 g of cells. Cells were further lysed by 3 passes through an ice cooled Avestin C5 cell crusher and then centrifuged at 48,000×g at 4° C. […] The IMAC column was then sequentially washed with IMAC Wash buffer 1 and IMAC Wash buffer 2 (25 mM Tris-HCl pH 8.0, 300 mM NaCl, 5 mM DTT, 20 mM Imidazole) and bound His-TEV-hSTING protein eluted with IMAC Elution buffer (25 mM Tris-HCl pH 8.0, 300 mM NaCl, 5 mM DTT, 250 mM Imidazole). […] Differential scanning fluorimetry (DSF) is a rapid screening method for identifying low-molecular-weight ligands that bind and, in doing so, stabilize (or sometimes destabilize) purified proteins (Niesen 2007). DSF monitors thermal unfolding of protein in the presence of a fluorescent dye and is typically performed using a real-time PCR instrument. The temperature at which a protein unfolds is measured by an increase in the fluorescence of a dye with affinity for hydrophobic parts of the protein that are gradually being exposed during unfolding. The fluorescence of the dye is quenched in aqueous environments, but when the dye associates with hydrophobic sites on unfolded protein, its fluorescence increases. The fluorescence intensity is plotted as a function of the temperature, generating a sigmoidal curve that can be described by a two-state transition. The inflection point of the transition curve (Tm) is calculated using simple equations such as that of Boltzmann. Thermal stability of STING protein (with and without bound ligand) was measured using previously described methodology (Seabrook & Newman, 2013), with samples tested in triplicate using 96-well PCR microplate (AB Gene, ABGAB-0600/W). […] Sealed plates were placed into Bio-Rad CFX96/C1000 thermocycler and FRET scanning mode (λ^excitation of 490 nm and reads at a λ^emission of 570 nm). Melting curves were recorded from 20° C. to 100° C. in 0.5° C. increments every 30 seconds with a read at each increment. Data were analysed using “Meltdown analysis” protocol described by Rosa (2015).
human STING (HAQ), sequence (Q86WV6 whole entry G230A/H232R/R293Q, looked up): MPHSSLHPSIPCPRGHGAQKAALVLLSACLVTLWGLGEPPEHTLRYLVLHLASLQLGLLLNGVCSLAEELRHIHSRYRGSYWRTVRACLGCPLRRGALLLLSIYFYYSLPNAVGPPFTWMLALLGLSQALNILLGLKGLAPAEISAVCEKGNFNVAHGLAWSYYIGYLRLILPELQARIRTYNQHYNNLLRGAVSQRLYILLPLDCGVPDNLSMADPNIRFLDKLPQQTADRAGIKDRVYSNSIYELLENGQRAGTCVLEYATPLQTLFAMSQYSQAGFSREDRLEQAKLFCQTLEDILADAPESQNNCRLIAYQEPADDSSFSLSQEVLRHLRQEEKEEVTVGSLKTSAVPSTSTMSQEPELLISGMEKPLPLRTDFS
A general note: Differential scanning fluorimetry follows unfolding on heating by fluorescence.

The target in assay [2] is T1, human STING (WT) (Homo sapiens (Human), UniProt Q86WV6, H232R). Briefly: Differential scanning fluorimetry (DSF), huSTING (WT). The conditions noted are these: 2 μM protein, compound 100 μM; Tm with ligand minus Tm of protein alone (1% DMSO); read-out: DSF huSTING (WT) ΔTm (° C.). The protocol: as §1
T1 sequence (Q86WV6 other isoform, or with tags, fused parts or gaps, stated change not applied): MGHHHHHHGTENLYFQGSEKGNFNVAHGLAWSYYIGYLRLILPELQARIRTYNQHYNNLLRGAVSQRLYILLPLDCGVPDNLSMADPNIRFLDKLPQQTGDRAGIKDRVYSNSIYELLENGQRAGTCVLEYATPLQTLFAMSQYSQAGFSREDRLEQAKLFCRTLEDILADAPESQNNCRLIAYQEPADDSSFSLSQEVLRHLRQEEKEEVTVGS
Assay [3] has as its target T1, human STING (WT). Briefly: Surface plasmon resonance (SPR), STING (WT). The conditions noted are these: biotinylated STING on streptavidin chip, 8° C. The protocol: Biophysical experiments were performed with three different recombinant human STING protein variants designated according to allelic nomenclature of Yi et al., (2013). Codon optimized DNA sequences (for expression in Escherichia coli) encoding amino acid residues 149 to 345 (Swiss Prot Q86WV6) of human STING (WT), human STING (HAQ) and human STING (R232H) were synthesised by GenScript USA Inc (Piscataway, New Jersey, USA). These were ligated into a modified pET43a E. coli expression vector designed to encode N-terminal His tag followed by tobacco etch virus protease (TEV) cleavage site and a STING gene sequence. The resulting protein sequences for the three allelic variants are listed below:
Binding interactions of ligands with STING proteins were quantified using Surface Plasmon Resonance (SPR) with a minimally biotinylated STING protein immobilized on a streptavidin chip surface. […] Minimal biotinylation of purified huSTING proteins was performed using a previously described methodology (Chhabra 2012). Briefly, approximately 20 nmol of recombinant STING protein in 1×TBS buffer (25 mM Tris-HCl, pH 7.5, 150 mM NaCl, 5 mM DTT) was mixed with of EZ-Link™ Sulfo-NHS-LC-LC-Biotin (Thermofisher Scientific, cat #21338) at a molar ratio of 1 to 0.6 and incubated on ice for 2 hours. To remove any unreacted biotin reagent, protein/biotin mixture was passed through a Superdex 75 (10/300 GL) column equilibrated with 10 mM HEPES, pH7.4, 150 mM NaCl, 5 mM DTT, 5%[v/v] glycerol. A protein peak containing biotinylated huSTING protein was collected and stored in aliquots at −80° C.
Streptavidin was simultaneously immobilized in all four channels of a CM5 sensor chip docked in a Biacore instrument (either Biacore S200 or Biacore T200, GE Healthcare) as described previously (Zender 2013). Minimally biotinylated STING protein was captured onto a streptavidin coated chip surface at 8° C. in SPR binding buffer (50 mM HEPES, pH 7.4, 150 mM NaCl, 2%[v/v] DMSO) by gradually injecting in a single channel at a constant flow-rate of 2 μL/min until desired capture level was achieved, typically 3000 to 7000 RU (1 RU=1 pg/mm^2).
All binding experiments were performed at 8° C. in SPR binding buffer. To determine binding affinity, compound interaction with immobilized STING protein was analysed using dose-response experiments. Fresh 10 mM DMSO solutions of compound were diluted directly into SPR binding buffer typically to a concentration of 50 μM and then further diluted 2-fold or 3-fold aiming for either a 5- or 7-point concentration series range. Each ligand concentration series was injected at a constant flow rate of 60 μL/min with a 90 second association and a 180 second dissociation time. These were modified for compounds with longer residence times, so that curves could reach steady-state, or so that compound would be fully dissociated before the subsequent injection.
Scrubber 2 (www.biologic.com.au) was utilized for data processing, where signals were referenced against the blank surface (streptavidin+D-biotin) and further corrected for DMSO refractive index change and then “double-referenced” using a buffer-blank injection (Papalia 2006). Responses were fitted to either a 1:1 steady-state affinity model or a 1:1 kinetic model (that included a mass-transport component), available within Scrubber.

As a reminder, the ΔTm is the shift of the melting midpoint relative to a reference. As usually defined, the Kd is the concentration at which binding is half-saturated. For the compound `COc1c(C(N)=O)ccc2c1nc(-c1c(F)cc(F)cc1-c1nn[nH]n1)n2CCn1c(-c2c(F)cc(F)cc2-c2nn[nH]n2)nc2c(OC)c(C(N)=O)ccc21` [Example 43, 1,1′-(Ethane-1,2-diyl)bis(2-(2,4-difluoro-6-(2H-tetrazol-5-yl)phenyl)-4-methoxy-1H-benzo[d]imidazole-5-carboxamide)], the ΔTm at 100 µM in assay [1] came out at 22.2 °C; in assay [2] it was 9.87 °C. Moreover, in assay [3], the Kd stood at 1790 nM.

In the case of `NC(=O)c1ccc2c(c1)nc(-c1ccccc1C(=O)O)n2CCn1c(-c2ccccc2C(=O)O)nc2cc(C(N)=O)ccc21` [Example 2, 2,2′-(Ethane-1,2-diylbis(5-carbamoyl-1H-benzo[d]imidazole-1,2-diyl))dibenzoic acid], the results for the ΔTm at 100 µM in assay [1] and in assay [2] were -3.48 °C and -6.94 °C, respectively. Besides, binding in assay [3] was put at a Kd of 80000 nM.

For the compound `COc1c(C(N)=O)ccc2c1nc(-c1c(Cl)cccc1C(=O)O)n2CCn1c(-c2c(Cl)cccc2C(=O)O)nc2c(OC)c(C(N)=O)ccc21` (racemic) [Example 22, 2,2′-(Ethane-1,2-diylbis(5-carbamoyl-4-methoxy-1H-benzo[d]imidazole-1,2-diyl))bis(3-chlorobenzoic acid)], the shift in melting temperature (ΔTm) at 100 µM in assay [1] came to 28.2 °C; in assay [2], 17 °C. The same compound yielded a Kd in assay [3] of 77 nM.

Take `COc1c(C(N)=O)ccc2c1nc(-c1c(F)cc(F)cc1C(=O)O)n2CCn1c(-c2c(F)cc(F)cc2C(=O)O)nc2c(OC)c(C(N)=O)ccc21` [Example 16, 2,2′-(Ethane-1,2-diylbis(5-carbamoyl-4-methoxy-1H-benzo[d]imidazole-1,2-diyl))bis(3,5-difluorobenzoic acid)]: the values for the thermal shift (ΔTm) at 100 µM in assay [1] and in assay [2] were 17.2 °C and 7.95 °C, respectively. Moreover, the affinity in assay [3], expressed as Kd, was 1520 nM.

As to `COc1c(C(N)=O)ccc2c1nc(-c1ccc(Cl)cc1-c1cn[nH]n1)n2CCn1c(-c2ccc(Cl)cc2-c2cn[nH]n2)nc2c(OC)c(C(N)=O)ccc21` [Example 24, 1,1′-(Ethane-1,2-diyl)bis(2-(4-chloro-2-(2H-1,2,3-triazol-4-yl)phenyl)-4-methoxy-1H-benzo[d]imidazole-5-carboxamide)], the ΔTm at 100 µM in assay [1] is -0.08 °C; in assay [2] it was -3.16 °C. This compound returned a Kd in assay [3] of 102000 nM.

As for `COc1c(C(N)=O)ccc2c1nc(-c1cnccc1C(=O)O)n2CCn1c(-c2cnccc2C(=O)O)nc2c(OC)c(C(N)=O)ccc21` [Example 30, 3,3′-(Ethane-1,2-diylbis(5-carbamoyl-4-methoxy-1H-benzo[d]imidazole-1,2-diyl))diisonicotinic acid], the ΔTm at 100 µM in assay [1] amounted to 2.14 °C; in assay [2] it was 0.29 °C. This compound showed a Kd in assay [3] of 126000 nM.

Regarding `COc1c(C(N)=O)ccc2c1nc(-c1ccccc1C(=O)O)n2CCn1c(-c2ccccc2C(=O)O)nc2c(OC)c(C(N)=O)ccc21` [Example 4, 2,2′-(Ethane-1,2-diylbis(5-carbamoyl-4-methoxy-1H-benzo[d]imidazole-1,2-diyl))dibenzoic acid], the ΔTm at 100 µM in assay [1] came to 7.23 °C; in assay [2], 3.28 °C. The Kd in assay [3] was > 10000 nM.

For `COc1c(C(N)=O)ccc2c1nc(-c1cccc(Cl)c1-c1nn[nH]n1)n2CCn1c(-c2cccc(Cl)c2-c2nn[nH]n2)nc2c(OC)c(C(N)=O)ccc21` [Example 40, 1,1′-(Ethane-1,2-diyl)bis(2-(3-chloro-2-(2H-tetrazol-5-yl)phenyl)-4-methoxy-1H-benzo[d]imidazole-5-carboxamide)], the ΔTm at 100 µM in assay [1] was -1.74 °C; in assay [2], -7.45 °C. For the same compound, binding in assay [3] was characterised by a dissociation constant (Kd) of 180000 nM.

With `COc1c(C(N)=O)ccc2c1nc(-c1c(F)cccc1-c1nn[nH]n1)n2CCn1c(-c2c(F)cccc2-c2nn[nH]n2)nc2c(OC)c(C(N)=O)ccc21` [Example 48, 1,1′-(Ethane-1,2-diyl)bis(2-(2-fluoro-6-(2H-tetrazol-5-yl)phenyl)-4-methoxy-1H-benzo[d]imidazole-5-carboxamide)], the ΔTm at 100 µM is 25.5 °C in assay [1] and 11.8 °C in assay [2]. Further, the Kd in assay [3] came out at 512 nM.

For `COc1c(C(N)=O)ccc2c1nc(-c1c(F)cc(Cl)cc1-c1n[nH]c(=O)o1)n2CCn1c(-c2c(F)cc(Cl)cc2-c2n[nH]c(=O)o2)nc2c(OC)c(C(N)=O)ccc21` [Example 50, 1,1′-(Ethane-1,2-diyl)bis(2-(4-chloro-2-fluoro-6-(5-oxo-4,5-dihydro-1,3,4-oxadiazol-2-yl)phenyl)-4-methoxy-1H-benzo[d]imidazole-5-carboxamide)], the thermal shift (ΔTm) at 100 µM in assay [1] worked out at 26.4 °C; in assay [2], 12.5 °C. Moreover, the Kd in assay [3] is 359 nM.

On to `COc1c(C(N)=O)ccc2c1nc(-c1c(Cl)cccc1-c1nn[nH]n1)n2CCn1c(-c2c(Cl)cccc2-c2nn[nH]n2)nc2c(OC)c(C(N)=O)ccc21` (single isomer, unassigned) [Example 23, 1,1′-(Ethane-1,2-diyl)bis(2-(2-chloro-6-(2H-tetrazol-5-yl)phenyl)-4-methoxy-1H-benzo[d]imidazole-5-carboxamide)], for which the ΔTm at 100 µM in assay [1] stood at 29.2 °C; in assay [2], 15 °C. In assay [3], this compound showed a Kd of 43 nM.

Take `COc1c(C(N)=O)ccc2c1nc(-c1ccc(Cl)cc1-c1nn[nH]n1)n2CCn1c(-c2ccc(Cl)cc2-c2nn[nH]n2)nc2c(OC)c(C(N)=O)ccc21` [Example 9, 1,1′-(Ethane-1,2-diyl)bis(2-(4-chloro-2-(2H-tetrazol-5-yl)phenyl)-4-methoxy-1H-benzo[d]imidazole-5-carboxamide)]: the ΔTm at 100 µM is 11.3 °C in assay [1] and 5.06 °C in assay [2]. This compound also had a Kd in assay [3] of 40000 nM.
